For assay [1], the system named is purified cysteine protease of Taenia solium. Nature of the assay: Human IgG degradation inhibition test, western blot (Step IV), purified enzyme. The assay is classed as biochemical. To be noted: 18 hrs, 37°C, E 64 10^-6 M, vehicle 10^-3 M. How it is done: (§1) To conduct this assessment, a western blot was performed. IgG digestion was detected by incubating 20 ul of T. solium purified enzyme or T. so/ium extract with 1 ug of human IgG (Sigma, St. Louis) in a final volume of 100 ul of assay buffer. Exogenous thiol activation was assessed by incubating the assay in the presence or absence of cysteine. The catalytic class of the IgG protease was determined by pre-incubating the following proteinase inhibitors at their active concentrations, with the enzyme: E 64 (10^-6 M, cysteine proteinases), phenylmethylsulfonyl fluoride (PMSF) (10^-3 M, serine proteinases), pepstatin A (10^-6 M, aspartic proteinases), and 1,10 phenanthroline (10^-3 M, metalloproteinases), and the vehicle, Mu-Leu-Tyr-AFC (10^-3 M). After addition of IgG, the assay was incubated overnight (37°C, 18 hrs). Subsequently, 100 ul of the mixture was boiled in sodium dodecyl sulfate polyacrylamide gel electrophoresis (SDS-PAGE) sample buffer with 2% 2-mercaptoethanol, separated by 12.5% SDS-PAGE, and blotted onto a polyvinylidene difluoride membrane. Tris buffered saline containing 0.1% bovine serum albumin and 0.05% Tween 20 (TBS-BSA) was used to block nonspecific binding. […]

In another assay the test system is crude mix. The assay is described as follows: Human IgG degradation inhibition test, western blot (Step IV), crude mix. The assay is classed as biochemical, Taenia solium. The following applies: crude mix compared with purified proteinase; data not shown. How it is done: as §1
For orientation: Immunoblotting shows a protein as a band on a membrane.

Starred links: 1 amine or outer side, 2 acyl side, 3 side chain; linkers in the order of their positions; H or OH if unused. Residues, ends and D or L forms follow the SMILES beside them. *: point of attachment. AFC = O=c1cc(C(F)(F)F)c2ccc(N*)cc2o1; Suc = O=C(CCC(=O)[*:2])[*:1]

Take `CC(C)C[C@H](NC(=O)CCC(=O)O)C(=O)N[C@@H](Cc1ccc(O)cc1)C(=O)Nc1ccc2c(C(F)(F)F)cc(=O)oc2c1` [Suc-Leu-Tyr-AFC] (Suc-Leu-Tyr-{AFC}): in assay [1], the “inhibition of cleavage of human IgG” value was “inhibit”. Further, the “concentration required for inhibition of IgG cleavage” value with crude mix is “greater”.

Values taken from patent publication EP1276895B1, “METHOD FOR THE IDENTIFICATION OF ACTIVE SITE PROTEASE INACTIVATORS” (THE UNIVERSITY OF GEORGIA RESEARCH FOUNDATION, INC., priority 2000, dated 2001).
